Data from article PMC9573699, “Deactivatable Bisubstrate Inhibitors of Protein Kinases” (Molecules, 2022).
Where two headings read alike, the source gives them in different places. Each block holds one compound with its values, some of them ahead of it. Non-standard residues stand in square brackets, D forms with d. Residues, ends and D or L forms follow the SMILES beside them. *: point of attachment. X2 = O=C(CCCCCCCC(=O)*)N1CCN(c2ncnc3[nH]ccc23)CC1

What was measured:
[1] = HPLC-MS analysis of the fragmentation of ARC-2121 and ARC-2194; assay type: physicochemical; details: TCEP 1 mM, pH 7.5, 30 °C
Protocol: At fixed time points (1, 10, 30, 60, and 120 min), 10 µL of the solution (corresponding to 1 nmol of the substrate) was injected into the RP-HPLC column.
ARC-2121 (200 µM) was dissolved in H2O:MeCN (10:1). ARC-2121 (200 µM, 20 µL) was irradiated for a fixed time (15, 30, 60, 90, and 120 s) inside a microtiter plate at room temperature (rt) using the custom-made 365 nm LED array (Figure S2). Then, 9 µL (1.7 nmol) of the solution was injected into the RP-HPLC column.

PKAcα [2] = assay: Estimated dynamic range of enzyme activity change upon deactivation (Equations 2, 3); details: estimated from change of KD app / IC50 upon deactivation
Source text: In general, deactivation of an inhibitor can be observed by a shift of a dose-response curve in a biochemical assay, which is caused by the increase of IC50 value from IC50^ON (the IC50 of the active inhibitor) to IC50^OFF (the IC50 of the deactivated inhibitor). The fraction of the active enzyme before and after applying the trigger depends on the initial concentration of the deactivatable inhibitor. If the sigmoidal dose–response model describes the concentration dependencies of the inhibition before and after applying the stimulus, the biggest change of the fraction of the active enzyme in the solution is observed at the concentration of the inhibitor Iopt whose logarithm is the average of the corresponding logIC50 values (Equation (2)):(2) logIopt=1/2logIC50ON+logIC50OFF
The ratio of fractions of active enzyme after (a^maxopt) and before (a^minopt) deactivation of the inhibitor (i.e., the on/off ratio of the activity of the enzyme) is determined by the square root of the ratio of the corresponding IC50 values (Equation (3)):(3) aoptmax/aoptmin=IC50OFF/IC50ON^1/2
Thus, the larger the difference between IC50^ON and IC50^OFF values is (ΔIC50), the higher the dynamic range of activity change (Δaopt = a^maxopt − a^minopt) of the enzyme is. […]

PKAcα [3] = details: cited from earlier work
PKAcα [4] = target: T1, PKAcα (Homo sapiens, UniProt P17612)
Source text: (§1) In the present work, photoluminescence-based competitive equilibrium binding assay was used to establish the KD and KD^app values of the novel compounds as determined before and after fragmentation, respectively. […] Two assay formats were used, which were designed for the determination of KD values of high-affinity bivalent inhibitors and the mixtures of their low-affinity fragments, respectively.
The first assay was based on the measurement of the time-gated photoluminescence signal intensity (TGLI) and it utilized ARC-Lum(Fluo) probes ARC-1063 or ARC-1182, which both emit long life-time photoluminescence signal when associated with a target PK [38]. ARC-1063 and ARC-1182 differ by the fluorescent label (Figure S7) and the choice between these probes was only based on the availability of the particular probe. […]
The displacement data were fitted to the previously described [40, 42] exact model of competitive binding (further explained in Appendix A) to determine KD and KD^app values, which were used as concentration- and probe-independent quantities to evaluate the deactivation efficiencies of the novel compounds.
The fluorescence intensity (FI), fluorescence anisotropy (FA), and time gated photoluminescence intensity (TGLI) measurements were performed with a PHERAstar (BMG Labtech) microplate reader. […] The TGLI was recorded for 200 µs after 60 µs delay from the flash-excitation. […]

PKAcα [5] = target: T1, PKAcα; assay: FA-based competitive binding/displacement assay (probe ARC-583); details: for influence of TCEP on the displacement curve: FA assay, TCEP 1 mM
Source text: as §1
A typical assay setup based on the measurement of FA utilizes concentrations of the fluorescence probes slightly below the concentration of the target protein but higher than the KD^* to achieve maximal Δr. The assay in the present work was conducted at 2 nM ARC-583 and 3 nM PKAcα. […] Thus, the KD values for low-affinity compounds can be reliably established with this FA-based assay format.
The fluorescence intensity (FI), fluorescence anisotropy (FA), and time gated photoluminescence intensity (TGLI) measurements were performed with a PHERAstar (BMG Labtech) microplate reader. The FI and FA measurements of the photoluminescent probe ARC-583 were performed with FP optical module [EX 540(50) nm, EM 590(50) nm]. The detector was adjusted with solution of the free probe ARC-583 (in the absence of PKAcα). […] The TGLI measurements of photoluminescent probes ARC-1182 and ARC-1063 were performed with HTRF optical module (EX 330(50) nm, EM 675(50) nm). The TGLI was recorded for 200 µs after 60 µs delay from the flash-excitation.
Upon arrival, the stock solution of PKAcα was divided into batches and stored at −80 °C. After removal from a freezer at −80 °C, the batches of PKAcα were stored at 0 °C in an ice box until consumed, to avoid repetitive freeze-thaw cycles.
The microplates were incubated for 30 min at 30 °C before measurements. The measurements were repeated after 60 min to verify that the reactions had reached the equilibrium. […] Formation of the complex was observed by the change of FA and the concentration of PKAcα was calculated as previously described [40, 42]. […] First, the solutions were incubated for 30 min at 30 °C, thereafter the FA or TGLI signals were measured. Then, the stock solution of TCEP (1 µL) was added to all wells to the final concentration of 1 mM. The microplates were then incubated for an additional 30 min at 30 °C and the FA or TGLI signals were measured in the presence of TCEP. All experiments were carried out in at least two replicates (n ≥ 2) and the reported errors are the standard errors of the mean.
The anisotropy change (Δr) with respect to the anisotropy of free photoluminescent probe ARC-583 and the TGLI of the photoluminescent probes ARC-1182 and ARC-1063 were plotted as functions of log[I]T, where [I]T corresponds to the total concentration of the ‘dark’ ligand/inhibitor that competes with the probe for the binding to the catalytic subunit of PK ([I]T = [I] + [PK:I], where [I] and [PK:I] correspond to the equilibrium concentrations of unbound I and PK:I complex, respectively).

PKAcα [6] = system: PKAcα; set-up: method as in PMID 17125267; details: cited from earlier work

Compound: N=C(N)NCCC[C@@H](NC(=O)[C@@H](CCCNC(=N)N)NC(=O)[C@@H](CCCNC(=N)N)NC(=O)[C@@H](CCCNC(=N)N)NC(=O)[C@@H](CCCNC(=N)N)NC(=O)[C@@H](CCCNC(=N)N)NC(=O)OCCSSCCOC(=O)N1CCN(c2ncnc3[nH]ccc23)CC1)C(N)=O [ARC-2194]
- time to quantitative conversion of parent compound to 1a ([1]; 100 µM): less than 1 min
- Δaopt (dynamic range of activity change of the enzyme) (PKAcα [2]): 98%

- fraction converted to 2a ([1]; after 2 h): more than 50%
Compound: O=C(OCCS)N1CCN(c2ncnc3[nH]ccc23)CC1 [Compound 1a]

Compound: N=C(N)NCCC[C@@H](NC(=O)CCCCCCCC(=O)N1CCN(c2ncnc3[nH]ccc23)CC1)C(=O)N[C@H](CCCNC(=N)N)C(=O)N[C@H](CCCNC(=N)N)C(=O)N[C@H](CCCNC(=N)N)C(=O)N[C@H](CCCNC(=N)N)C(=O)N[C@H](CCCNC(=N)N)C(=O)N[C@H](CCCCN)C(N)=O [ARC-1411] (X2-[dR][dR][dR][dR][dR][dR][dK]-NH2)
- Kd (PKAcα [3]; previously measured affinity): 0.003 nM
- Kd (PKAcα [4]): 0.003 ± 0.001 nM
- influence of TCEP on the displacement curve (PKAcα [5]): not influenced

- Kd (PKAcα [5]): 460 ± 210 nM
Compound: NC(=O)CCCCCCCC(=O)N1CCN(c2ncnc3[nH]ccc23)CC1 [Compound 11a, 7DP-Pip-Nda-amide]

- influence of TCEP on the displacement curve (PKAcα [5]): not influenced
Compound: O=S(=O)(NCCNC/C=C/c1ccc(Br)cc1)c1cccc2cnccc12 [Compound H-89]
- Kd (PKAcα [3]; H-89:PKAcα complex): 9 nM

Compound: c1nc(N2CCNCC2)c2cc[nH]c2n1 [Compound 2a, 4-(piperazin-1-yl)-7H-pyrrolo [2,3-d]pyrimidine]
- Kd (PKAcα [5]): 550 ± 150 nM
- influence of TCEP on the displacement curve (PKAcα [5]): not influenced

Compound: hexa-D-arginine
- inhibitory potency (PKAcα [6]): millimolar
